Laboratory results taken from patent US20220340564A1, “ANTIBACTERIAL COMPOUNDS” (Janssen Sciences Ireland Unlimited Company, priority 2019, published 2022).
Converted amounts (≈) assume the structure as drawn. Like-named read-outs stand apart in the source and are kept apart here.

Experiments:
[1] = Microsomal stability CLint (M); details: mouse, microsomes
hERGdof = hERGdof (Homo sapiens, UniProt Q12809); test: CVS panel, hERGdof; type: binding
Na Ch = test: CVS panel, Na channel
Ca Ch = test: CVS panel, Ca channel
Text: (§1) The compounds of the invention/examples may have advantages associated with in vitro potency, kill kinetics (i.e. bactericidal effect) in vitro, PK properties, food effect, safety/toxicity (including liver toxicity, coagulation, […]), metabolic stability, Ames II negativity, MNT negativity, aqueous based solubility (and ability to formulate) and/or cardiovascular effect e.g. on animals (e.g. anesthetized guinea pig). The data below that was generated/calculated may be obtained using standard methods/assays, for instance that are available in the literature or which may be performed by a supplier (e.g. Microsomal Stability Assay—Cyprotex, Mitochondrial toxicity (Glu/Gal) assay —Cyprotex, as well as literature CYP cocktail inhibition assays). In some instances, GSH was measured (reactive metabolites, glucuronidation) to observe if a dihydrodiol is observed by LCMS (fragmentation ions), which would correspond to a dihydroxylation on the core heterocycle.

[2] = Microsomal stability CLint (H); details: human, microsomes
[3] = tested on: Mycobacterium tuberculosis strain EH4.0 expressing green-fluorescent protein (GFP); test: microbe, parasite or virus in culture; type: cell-based; details: 168 h, read-out: pIC50 (converted)
[4] = Bioavailability in rodents
[5] = tested on: Cyp-450 (cocktail, isoforms not named); test: Cocktail Cyp-450 inhibition; type: in vitro ADME
Text: as §1

[6] = Mitochondrial toxicity (Glu/Gal) assay; type: cell-based
Text: as §1

in vitro [7] = details: mouse, microsomes
in vitro [8] = details: human, microsomes
[9] = GSH (GSH/CN) reactive metabolite measurement; type: in vitro ADME
Text: as §1

hERG = hERG (Homo sapiens, UniProt Q12809); test: CVS panel, hERGdof; type: binding; details: human
Sequence of hERG (Q12809 whole entry): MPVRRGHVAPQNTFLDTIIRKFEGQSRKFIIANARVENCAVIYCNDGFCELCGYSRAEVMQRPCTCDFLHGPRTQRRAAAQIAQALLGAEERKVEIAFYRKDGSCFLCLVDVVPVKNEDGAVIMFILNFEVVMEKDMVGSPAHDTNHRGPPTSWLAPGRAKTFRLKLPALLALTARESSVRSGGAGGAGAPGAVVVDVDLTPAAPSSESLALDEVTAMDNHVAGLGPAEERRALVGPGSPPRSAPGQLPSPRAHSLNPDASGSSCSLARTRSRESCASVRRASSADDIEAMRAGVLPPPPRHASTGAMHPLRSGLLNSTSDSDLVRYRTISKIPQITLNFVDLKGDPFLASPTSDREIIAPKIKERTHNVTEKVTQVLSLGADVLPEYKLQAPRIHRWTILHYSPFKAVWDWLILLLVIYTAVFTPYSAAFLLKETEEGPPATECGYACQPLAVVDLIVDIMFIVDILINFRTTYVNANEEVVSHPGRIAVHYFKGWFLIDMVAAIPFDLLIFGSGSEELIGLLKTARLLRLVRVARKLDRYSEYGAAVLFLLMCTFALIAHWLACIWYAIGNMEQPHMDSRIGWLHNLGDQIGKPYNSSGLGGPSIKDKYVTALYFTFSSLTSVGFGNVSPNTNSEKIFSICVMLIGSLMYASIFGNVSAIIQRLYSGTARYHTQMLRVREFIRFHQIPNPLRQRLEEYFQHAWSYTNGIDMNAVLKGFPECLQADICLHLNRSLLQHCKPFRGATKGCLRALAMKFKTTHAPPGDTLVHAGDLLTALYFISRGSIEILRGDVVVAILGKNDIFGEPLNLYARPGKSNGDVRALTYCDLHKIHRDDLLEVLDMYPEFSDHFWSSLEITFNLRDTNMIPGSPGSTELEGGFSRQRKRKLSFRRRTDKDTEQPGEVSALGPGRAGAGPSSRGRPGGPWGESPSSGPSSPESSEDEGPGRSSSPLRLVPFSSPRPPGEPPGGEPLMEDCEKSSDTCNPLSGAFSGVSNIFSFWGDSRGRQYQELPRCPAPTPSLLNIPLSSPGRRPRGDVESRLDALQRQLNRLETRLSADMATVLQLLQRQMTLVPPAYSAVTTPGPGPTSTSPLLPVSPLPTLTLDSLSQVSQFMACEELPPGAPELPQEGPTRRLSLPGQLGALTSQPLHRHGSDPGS

CYP3A4 = CYP3A4 (Homo sapiens, UniProt P08684); test: Cocktail Cyp-450 inhibition, CYP3A4; type: in vitro ADME
Sequence of CYP3A4 (P08684 whole entry): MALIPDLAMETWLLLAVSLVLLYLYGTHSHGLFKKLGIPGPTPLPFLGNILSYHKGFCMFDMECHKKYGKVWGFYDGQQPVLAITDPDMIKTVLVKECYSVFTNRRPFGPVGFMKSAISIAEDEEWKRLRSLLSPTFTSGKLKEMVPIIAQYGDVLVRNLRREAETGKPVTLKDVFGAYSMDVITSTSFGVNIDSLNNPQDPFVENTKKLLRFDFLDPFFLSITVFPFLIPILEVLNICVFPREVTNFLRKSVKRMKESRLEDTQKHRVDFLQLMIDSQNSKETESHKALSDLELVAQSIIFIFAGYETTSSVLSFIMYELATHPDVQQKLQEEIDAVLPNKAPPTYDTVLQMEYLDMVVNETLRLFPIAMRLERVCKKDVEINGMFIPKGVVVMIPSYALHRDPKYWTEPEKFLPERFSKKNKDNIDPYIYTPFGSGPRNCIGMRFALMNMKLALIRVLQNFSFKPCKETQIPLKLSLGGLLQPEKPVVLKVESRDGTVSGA

[10] = in vivo
AMES II = type: cell-based
Text: as §1

in vitro [11] = details: dog, hepatocytes
in vitro [12] = details: human, hepatocytes
in vitro [13] = details: mouse, hepatocytes
in vitro [14] = details: rat, hepatocytes
physchem = details: thermodynamic from solid
in vitro [15] = details: human
Kinase panel = test: Kinase panel; type: biochemical
in vitro [16] = details: mouse
in vivo = details: rat, po, 5 mg/kg
Procedure: Oral Bioavailability of Compound 161 in Rat
Compound 161 was administer PO in rat (5 mg/kg, PEG4000 (sol.), 0.5 w/v Methocel (susp.) and the following results were obtained for the solution and suspension.

Cyp 3A4 = Cyp 3A4 induction; details: at 1 μM
M. tuberculosis H37Rv = M. tuberculosis H37Rv inside macrophages; J. Medicinal Chemistry, 2014, 57 (12), pp 5293-5305; cited from earlier work
[17] = unit inferred, read-out: Cocktail Cyp-450, IC50

Sequence of hERGdof (Q12809 whole entry): as the sequence (Q12809 whole entry) above

SMILES | microsomal CLint [1] [µL/min/mg] | IC50 (Na Ch) [µM] | IC50 (Ca Ch) [µM] | microsomal CLint [2] [µL/min/mg] | IC50 [3] [µM] | IC50 [5, 17] [µM] | Glu/Gal assay ratio (mitotoxicity) [6] | IC50 (hERGdof; read-out: CVS hERGdof, IC50) [µM] | microsomal CLint (in vitro [7]) [µL/min/mg] | microsomal CLint (in vitro [8]) [µL/min/mg] | GSH / reactive metabolites [9] | further results
CCc1nc2ccc(Cl)cn2c1C(=O)NCc1ccc(N2CCN(S(=O)(=O)C(F)(F)F)C=N2)cc1 [Compound 1] | 21.5 | > 10 | > 10 | 29.6 | 0.00708 | > 20 | < 3 | – | – | – | – | IC50 (hERGdof): > 10 µM; bioavailability (as shown in rodents) [4]: good bioavailaibility
CCc1nc2ccc(Cl)cn2c1C(=O)NCc1ccc(N2CCN(S(=O)(=O)C(F)(F)F)C(OC)=N2)cc1 [Compound 6] | – | > 10 | > 10 | – | 0.00631 | > 20 | < 3 | > 10 | 49 | 37.6 | no measure of GSH | –
CCc1nc2ncc(Cl)cn2c1C(=O)NCc1ccc(N2CCN(S(=O)(=O)C(F)(F)F)C=N2)cc1 [Compound 13] | 13.3 | > 10 | > 10 | 16.3 | 0.00398 | > 20 | – | – | – | – | – | IC50 (hERG): 7.4 µM
CCc1nc2ccc(Cl)cn2c1C(=O)NCc1ccc(N2CCN(S(=O)(=O)C(F)(F)F)C=N2)cc1F [Compound 16] | 18 | > 10 | > 10 | 24 | 0.00631 | > 20 | – | > 10 | – | – | – | –
CCc1nc2ccc(Cl)cn2c1C(=O)NCc1ccc(N2CCN(S(C)(=O)=O)C=N2)cc1 [Compound 20] | – | > 10 | > 10 | – | 0.0316 | > 20 | – | > 10 | 15.9 | 56.6 | – | IC50 (CYP3A4): 13.2 µM
CCc1nc2ccc(C#N)cn2c1C(=O)NCc1ccc(N2CCN(S(=O)(=O)C(F)(F)F)C(OC)=N2)c(F)c1 [Compound 73] | – | > 10 | > 10 | – | 0.0513 | > 20 | – | > 10 | 93 | 18 | no measure of GSH | –
O=C(NCc1ccc(N2CCN(S(=O)(=O)C(F)(F)F)C=N2)c(F)c1)c1c(C(F)(F)F)nc2ccccn12 [Compound 152] | – | – | – | – | 0.002 | – | < 3 | – | – | – | formation of reactive metabolites was blocked | bioavailability (as shown in rodents) [10]: good bioavailaibility
CCc1nc2ncc(C)cn2c1C(=O)NCc1ccc(N2CCN(S(=O)(=O)C(F)(F)F)C=N2)c(F)c1 [Compound 161] | – | > 10 | > 10 | – | 0.000776 | – | < 3 | 15.8 | – | – | – | AMES II (AMES II): negative; hepatocyte CLint (in vitro [11]): 4.7 µL/min/1e6 cells; bioavailability (as shown in rodents) [10]: good bioavailaibility; hepatocyte CLint (in vitro [12]): 6.7 µL/min/1e6 cells; hepatocyte CLint (in vitro [13]): 12 µL/min/1e6 cells; hepatocyte CLint (in vitro [14]): 19 µL/min/1e6 cells; solubility thermodynamic (physchem; fassif): 5 µg/mL (≈ 9.48 µM); solubility thermodynamic (physchem; fessif): 16 µg/mL (≈ 30.3 µM); solubility thermodynamic (physchem; pH 2, simulated gastric fluid): 33 µg/mL (≈ 62.6 µM); solubility thermodynamic (physchem; pH 7, aqueous buffer): < 0.02 µg/mL; fraction unbound (in vitro [15]): 0.015; IC50 [5]: > 20 µM; Kinase panel (Kinase panel): negative; fraction unbound (in vitro [16]): 0.0245; AUC0-inf (in vivo): 5610 ± 2747 ng·h/mL; AUC0-inf (in vivo; AUC0-inf): 10900 ± 1720 ng·h/mL; Cmax (in vivo; Cmax): 1230 ± 406 ng/mL; Tmax (in vivo; Tmax): 4 h; half-life (in vivo; t1/2): 3.55 ± 0.45 h; Cyp 3A4 induction (% control) (Cyp 3A4): 3.0 % control
CCc1nc2ccc(Cl)cn2c1C(=O)NCc1ccc(N2CCC(c3ccc(OC(F)(F)F)cc3)CC2)cc1 [Compound Q203] | – | – | – | – | – | – | – | – | – | – | – | MIC50 (M. tuberculosis H37Rv): 0.28 nM (≈ 0.156 ng/mL)
